Values quoted from earlier work as cited in patent US10709795B2, “Method for delivering pharmaceutical nanoparticles to cancer cells” (National Guard Health Affairs, priority 2017, dated 2020).
Like-named read-outs stand apart in the source and are kept apart here.

How the values were obtained:
[1] = not given; remark: listed apart in the source
[2] = Grades 1-4, N = 2448, 1st line of this name
[3] = Grades 1-4, N = 2448, 2nd line of this name

N#Cc1ccc(C(c2ccc(C#N)cc2)n2cncn2)cc1 [Femara, Letrozole]
Endometrial Hyperplasia/Cancer, % (Grades 1-4, 1st line of this name): 0.8%
Endometrial Hyperplasia/Cancer, % (Grades 1-4, 2nd line of this name): 0.3%
Alopecia, % (Grades 1-4, N = 2448): 3.4%
Angina, % (Grades 1-4, N = 2448): 1.3%
Angine, % (Grades 1-4, N = 2448): 1.1%
Anorexia, % (Grades 1-4, N = 2448): 1.5%
Arthralgia/Arthritis, % (Grades 1-4, N = 2448): 25.2%
Back pain, % (Grades 1-4, N = 2448): 5.1%
Bone Pain, % (Grades 1-4, N = 2448): 5.0%
Breast Pain, % (Grades 1-4, N = 2448): 2.0%
Cataract, % (Grades 1-4, N = 2448): 2.0%
Constipation, % (Grades 1-4, N = 2448): 2.0%
Depression, % (Grades 1-4, N = 2448): 4.9%
Dizziness/Light headedness, % (Grades 1-4, N = 2448): 3.4%
Edema, % (Grades 1-4, N = 2448): 6.7%
Endometrial proliferation Disorders, % (Grades 1-4, N = 2448): 0.3%
Fatigue (Lethargy, Malaise, Asthenia), % (Grades 1-4, N = 2448): 9.6%
Headache, % (Grades 1-4, N = 2448): 4.3%
Hot Flashes/Flushes, % (Grades 1-4, N = 2448): 33.5%
Hypercholesterolemia, % (Grades 1-4, N = 2448): 52.3%
Myalgia, % (Grades 1-4, N = 2448): 8.9%
Myocardial Ischemia, % (Grades 1-4, N = 2448): 0.2%
Nausea, % (Grades 1-4, N = 2448): 11.6%
Night Sweats, % (Grades 1-4, N = 2448): 25.2%
Osteopenia, % (Grades 1-4, N = 2448): 3.6%
Osteoporosis NOS, % (Grades 1-4, N = 2448): 5.1%
Other Endometrial Disorders, % (Grades 1-4, N = 2448): <0.1%
Pain in extremity, % (Grades 1-4, N = 2448): 4.2%
Pts with any adverse event, % (Grades 1-4, N = 2448): 94.4%
Vaginal Bleeding, % (Grades 1-4, N = 2448): 5.2%
Vaginal Irritation, % (Grades 1-4, N = 2448): 4.5%
Vomiting, % (Grades 1-4, N = 2448): 3.3%
Weight Decrease, % (Grades 1-4, N = 2448): 5.7%
Weight Increase, % (Grades 1-4, N = 2448): 13.8%
Bone Fractures, % [2]: 14.6%
Cerebrovascular Accident, % [2]: 2.1%
Myocardial Infarction, % [2]: 1.0%
Other Cardiovascular1, % [2]: 10.6%
Second Malignancies, % [2]: 2.2%
Thromboembolic Event, % [2]: 2.1%
Bone Fractures, % [3]: 10.1%
Cerebrovascular Accident, % [3]: 2.9%
Myocardial Infarction, % [3]: 1.5%
Other Cardiovascular1, % [3]: 12.7%
Second Malignancies, % [3]: 4.2%
Thromboembolic Event, % [3]: 2.9%
Anorexia, % (Grades 3-4, N = 2448): <0.1%
Arthralgia/Arthritis, % (Grades 3-4, N = 2448): 3.5%
Back pain, % (Grades 3-4, N = 2448): 0.3%
Bone Pain, % (Grades 3-4, N = 2448): 0.2%
Breast Pain, % (Grades 3-4, N = 2448): <0.1%
Cataract, % (Grades 3-4, N = 2448): 0.7%
Constipation, % (Grades 3-4, N = 2448): 0.1%
Depression, % (Grades 3-4, N = 2448): 0.7%
Dizziness/Light headedness, % (Grades 3-4, N = 2448): <0.1%
Edema, % (Grades 3-4, N = 2448): 0.1%
Fatigue (Lethargy, Malaise, Asthenia), % (Grades 3-4, N = 2448): 0.2%
Headache, % (Grades 3-4, N = 2448): 0.4%
Hypercholesterolemia, % (Grades 3-4, N = 2448): 0.4%
Myalgia, % (Grades 3-4, N = 2448): 0.7%
Nausea, % (Grades 3-4, N = 2448): 0.2%
Osteoporosis NOS, % (Grades 3-4, N = 2448): 0.4%
Pain in extremity, % (Grades 3-4, N = 2448): 0.1%
Pts with any adverse event, % (Grades 3-4, N = 2448): 25.9%
Vaginal Bleeding, % (Grades 3-4, N = 2448): <0.1%
Vaginal Irritation, % (Grades 3-4, N = 2448): <0.1%
Vomiting, % (Grades 3-4, N = 2448): 0.1%
Weight Decrease, % (Grades 3-4, N = 2448): 0.3%
Weight Increase, % (Grades 3-4, N = 2448): 1.1%
water solubility (in words) [1]: water insoluble
